Assay results taken from PubChem BioAssay (NCI).
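48-hour exposure; five concentrations; linearly interpolated endpoints. Definition used: TGI = concentration required for complete inhibition of growth.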

What was measured:
Assay in all cases: NCI anticancer screen, dose series, 48 h
SK-MEL-2 melanoma = system: SK-MEL-2 melanoma
NCI-H522 lung = system: NCI-H522 lung
DLD-1 colon = system: DLD-1 colon
UACC-62 melanoma = system: UACC-62 melanoma
HCC-2998 colon = system: HCC-2998 colon
RPMI-8226 leukemia = system: RPMI-8226 leukemia
CAKI-1 renal = system: CAKI-1 renal
NCI-H226 lung = system: NCI-H226 lung
SK-MEL-28 melanoma = system: SK-MEL-28 melanoma
KM12 colon = system: KM12 colon
SK-OV-3 ovarian = system: SK-OV-3 ovarian
LOX IMVI melanoma = system: LOX IMVI melanoma
MALME-3M melanoma = system: MALME-3M melanoma
HOP-18 NSCLC = system: HOP-18 NSCLC
UACC-257 melanoma = system: UACC-257 melanoma
COLO 205 colon = system: COLO 205 colon
OVCAR-4 ovarian = system: OVCAR-4 ovarian
SK-MEL-5 melanoma = system: SK-MEL-5 melanoma
DMS 114 small cell lung = system: DMS 114 small cell lung
LXFL 529 NSCLC = system: LXFL 529 NSCLC
SNB-19 CNS = system: SNB-19 CNS
SW-620 colon = system: SW-620 colon
HOP-92 NSCLC = system: HOP-92 NSCLC
ACHN renal = system: ACHN renal
HCT-116 colon = system: HCT-116 colon
SNB-75 CNS = system: SNB-75 CNS
KM20L2 colon = system: KM20L2 colon
NCI-H23 lung = system: NCI-H23 lung
SN12C renal = system: SN12C renal
SF-268 CNS = system: SF-268 CNS
SNB-78 CNS = system: SNB-78 CNS
OVCAR-8 ovarian = system: OVCAR-8 ovarian
EKVX NSCLC = system: EKVX NSCLC
K-562 leukemia = system: K-562 leukemia
A498 renal = system: A498 renal
HOP-62 NSCLC = system: HOP-62 NSCLC
A549 NSCLC = system: A549 NSCLC
DMS 273 small cell lung = system: DMS 273 small cell lung
UO-31 renal = system: UO-31 renal
CCRF-CEM leukemia = system: CCRF-CEM leukemia
MOLT-4 leukemia = system: MOLT-4 leukemia
U251 CNS = system: U251 CNS
RXF 393 renal = system: RXF 393 renal
SR leukemia = system: SR leukemia
SF-295 CNS = system: SF-295 CNS
SF-539 CNS = system: SF-539 CNS
HT29 colon = system: HT29 colon
HCT-15 colon = system: HCT-15 colon
M19-MEL melanoma = system: M19-MEL melanoma
786-0 renal = system: 786-0 renal
NCI-H460 lung = system: NCI-H460 lung
HL-60(TB) leukemia = system: HL-60(TB) leukemia
M14 melanoma = system: M14 melanoma
TK-10 renal = system: TK-10 renal
OVCAR-3 ovarian = system: OVCAR-3 ovarian
XF 498 CNS = system: XF 498 CNS
IGROV1 ovarian = system: IGROV1 ovarian
OVCAR-5 ovarian = system: OVCAR-5 ovarian
RXF-631 renal = system: RXF-631 renal

Measured: TGI

CCCCSC(=CC(=O)c1cccc(C(=O)C=C(SCCCC)SCCCC)n1)SCCCC
not listed: RXF-631 renal
> 100 µM: all other assays above

CC(C)CC(N=Cc1nc(-c2ccccc2)oc1O)C(=O)O (stereo not drawn)
not listed: HOP-18 NSCLC | LXFL 529 NSCLC | HOP-92 NSCLC | XF 498 CNS
> 100 µM: all other assays above
